The record followed here is ChEMBL document CHEMBL1129020, “Synthesis and protein kinase C inhibitory activities of indane analogs of balanol” (Bioorg Med Chem Lett, 1996).

pIC50: −log10 of the molar value.

Test [1] deals with cAMP-dependent protein kinase (PKA) (Homo sapiens, UniProt P22694+P17612+P22612). In words: Inhibition of cAMP-dependent protein kinase (PKA). Type of test: protein assay.
Test [2] addresses T1, Protein kinase C epsilon type (Homo sapiens, UniProt Q02156).
T1 sequence (Q02156 whole entry): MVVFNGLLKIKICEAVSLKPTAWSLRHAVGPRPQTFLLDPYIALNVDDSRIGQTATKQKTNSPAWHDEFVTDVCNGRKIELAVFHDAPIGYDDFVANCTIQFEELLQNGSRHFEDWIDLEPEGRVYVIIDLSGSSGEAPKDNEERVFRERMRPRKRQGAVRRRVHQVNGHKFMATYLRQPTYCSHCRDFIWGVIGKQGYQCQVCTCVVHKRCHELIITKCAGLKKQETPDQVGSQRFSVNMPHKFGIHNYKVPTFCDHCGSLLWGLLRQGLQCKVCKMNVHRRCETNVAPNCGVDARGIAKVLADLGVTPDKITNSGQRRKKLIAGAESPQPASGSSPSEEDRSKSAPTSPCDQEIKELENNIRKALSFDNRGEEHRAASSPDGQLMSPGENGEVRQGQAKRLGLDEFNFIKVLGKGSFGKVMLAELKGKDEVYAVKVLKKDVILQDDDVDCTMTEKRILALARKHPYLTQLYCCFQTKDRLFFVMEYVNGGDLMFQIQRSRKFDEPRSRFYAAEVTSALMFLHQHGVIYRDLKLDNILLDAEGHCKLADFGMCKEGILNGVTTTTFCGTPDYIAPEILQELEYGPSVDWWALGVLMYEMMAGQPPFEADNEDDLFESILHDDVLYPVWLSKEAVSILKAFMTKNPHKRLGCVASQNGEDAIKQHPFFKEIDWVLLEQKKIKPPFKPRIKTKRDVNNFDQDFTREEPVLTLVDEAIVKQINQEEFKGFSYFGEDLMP
The test can be described thus: Inhibition of protein kinase C epsilon.

The target in test [3] is T2, Protein kinase C eta type (Homo sapiens, UniProt P24723). The test can be described thus: Inhibition of protein kinase C eta.
Test [4] concerns the target T3, Protein kinase C gamma type (Homo sapiens, UniProt P05129). The test can be described thus: Inhibition of protein kinase C gamma.
Test [5] deals with T4, Protein kinase C beta type (Homo sapiens, UniProt P05771). In words: Inhibition of protein kinase C beta 1.
The target of test [6] is T4, Protein kinase C beta type. The test can be described thus: Inhibition of protein kinase C beta II.
For test [7], the target named is T5, Protein kinase C delta type (Homo sapiens, UniProt Q05655). In words: Inhibition of protein kinase C delta.
For test [8], the target named is Protein kinase C alpha type (Homo sapiens, UniProt P17252). In words: Inhibition of protein kinase C alpha.
Test [9] deals with T4, Protein kinase C beta type. The test can be described thus: Inhibition of Protein kinase C beta 2.
The target in test [10] is T5, Protein kinase C delta type. In words: Inhibition of Protein kinase C delta.
The target in test [11] is T3, Protein kinase C gamma type. The test can be described thus: Inhibition of Protein kinase C gamma.
In test [12] the target is T2, Protein kinase C eta type. In words: Inhibition of Protein kinase C eta.
Test [13] has as its target T4, Protein kinase C beta type. In words: Inhibition of Protein kinase C beta 1.

As usually defined, the IC50 is the concentration needed to halve the response being measured. Read a low IC50 as greater potency in that assay. Broadly, the pIC50 is the negative decadic logarithm of the IC50, by convention in mol/L. Read a low pIC50 as a large IC50.

T4 sequence (P05771 whole entry): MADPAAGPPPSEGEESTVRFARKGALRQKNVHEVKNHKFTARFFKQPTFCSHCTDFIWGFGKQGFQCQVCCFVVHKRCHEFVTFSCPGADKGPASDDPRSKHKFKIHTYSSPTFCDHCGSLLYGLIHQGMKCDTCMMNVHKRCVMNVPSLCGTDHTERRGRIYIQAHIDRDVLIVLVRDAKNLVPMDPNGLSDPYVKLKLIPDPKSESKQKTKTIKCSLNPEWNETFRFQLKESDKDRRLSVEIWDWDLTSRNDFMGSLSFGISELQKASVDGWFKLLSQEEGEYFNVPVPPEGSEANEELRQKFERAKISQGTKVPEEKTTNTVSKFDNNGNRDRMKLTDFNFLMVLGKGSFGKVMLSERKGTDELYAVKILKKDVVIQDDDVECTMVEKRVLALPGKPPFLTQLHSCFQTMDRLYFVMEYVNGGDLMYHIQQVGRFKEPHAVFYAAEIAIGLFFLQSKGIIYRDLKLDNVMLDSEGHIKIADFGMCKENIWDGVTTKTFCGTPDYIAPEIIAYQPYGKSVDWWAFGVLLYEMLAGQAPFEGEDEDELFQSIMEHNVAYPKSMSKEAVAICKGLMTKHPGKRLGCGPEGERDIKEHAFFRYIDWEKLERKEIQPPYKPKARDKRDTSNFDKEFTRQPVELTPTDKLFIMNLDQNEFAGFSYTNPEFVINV
T5 sequence (Q05655 whole entry): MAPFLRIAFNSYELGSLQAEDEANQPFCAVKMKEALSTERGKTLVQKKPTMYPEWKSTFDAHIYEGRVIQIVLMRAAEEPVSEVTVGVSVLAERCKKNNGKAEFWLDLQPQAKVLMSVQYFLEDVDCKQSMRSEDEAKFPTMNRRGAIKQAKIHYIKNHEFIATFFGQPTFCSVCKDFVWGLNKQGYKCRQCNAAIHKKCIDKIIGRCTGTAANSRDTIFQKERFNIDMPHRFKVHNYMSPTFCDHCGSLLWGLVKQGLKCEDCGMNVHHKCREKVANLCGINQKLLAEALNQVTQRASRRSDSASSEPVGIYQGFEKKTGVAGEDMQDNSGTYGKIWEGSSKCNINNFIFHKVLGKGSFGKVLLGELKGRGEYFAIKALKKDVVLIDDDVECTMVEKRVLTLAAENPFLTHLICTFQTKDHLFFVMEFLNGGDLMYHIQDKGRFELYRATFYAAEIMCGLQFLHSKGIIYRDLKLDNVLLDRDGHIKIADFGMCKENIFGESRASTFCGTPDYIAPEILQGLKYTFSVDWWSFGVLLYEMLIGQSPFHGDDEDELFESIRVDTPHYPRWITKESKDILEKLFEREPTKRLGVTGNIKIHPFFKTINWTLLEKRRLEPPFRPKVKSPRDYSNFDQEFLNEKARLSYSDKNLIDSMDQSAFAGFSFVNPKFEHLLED
T2 sequence (P24723 whole entry): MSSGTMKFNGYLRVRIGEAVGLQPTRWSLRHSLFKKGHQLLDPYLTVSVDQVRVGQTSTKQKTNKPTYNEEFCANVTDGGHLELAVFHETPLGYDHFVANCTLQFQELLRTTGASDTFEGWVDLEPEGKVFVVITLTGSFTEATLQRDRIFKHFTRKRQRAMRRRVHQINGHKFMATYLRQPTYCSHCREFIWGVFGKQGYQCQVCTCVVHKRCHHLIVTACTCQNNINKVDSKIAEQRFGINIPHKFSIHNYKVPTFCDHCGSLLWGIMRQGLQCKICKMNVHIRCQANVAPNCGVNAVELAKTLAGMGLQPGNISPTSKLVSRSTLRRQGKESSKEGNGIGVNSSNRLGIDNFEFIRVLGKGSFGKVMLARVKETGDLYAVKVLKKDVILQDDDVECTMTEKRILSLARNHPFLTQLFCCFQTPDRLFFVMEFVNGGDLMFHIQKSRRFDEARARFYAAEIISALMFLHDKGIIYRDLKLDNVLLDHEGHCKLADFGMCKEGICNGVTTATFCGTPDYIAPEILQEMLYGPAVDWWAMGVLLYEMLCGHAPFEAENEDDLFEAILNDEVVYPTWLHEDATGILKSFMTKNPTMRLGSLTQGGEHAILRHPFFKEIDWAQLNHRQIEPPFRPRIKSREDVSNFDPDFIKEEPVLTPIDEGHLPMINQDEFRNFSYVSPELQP

Regarding `O=C(N[C@@H]1c2ccccc2CC1OC(=O)c1cc(O)c(C(=O)c2c(O)cccc2C(=O)O)c(O)c1)c1ccc(O)cc1` (mixture of isomers), the half-maximal inhibitory concentration (IC50) in test [1] was found to be 50000 nM. The pIC50 is 6.51 in test [2]; over 8.00 in test [3]; 6.80 in test [4]; 6.70 in test [5]; 6.77 in test [6]; 7.52 in test [7]. The same compound had a pIC50 in test [8] of 6.80.
For `O=C(N[C@H]1c2ccccc2CC1OC(=O)c1cc(O)c(C(=O)c2c(O)cccc2C(=O)O)c(O)c1)c1ccc(O)cc1` (mixture of isomers), in test [1], the IC50 was over 100000 nM. Moreover, the pIC50 in test [2] is 4.60; in test [4], 4.47; in test [5], 4.43; in test [6], 4.43; in [7], 4.68; in [8] it was under 4.30.
Regarding `O=C(N[C@H]1CNCCCC1OC(=O)c1cc(O)c(C(=O)c2c(O)cccc2C(=O)O)c(O)c1)c1ccc(O)cc1` (stereo not given in full), the pIC50 in test [9] was 6.06; in test [10], 6.38; in test [11], 6.40; in test [8], 5.52; in [12], 6.59; in [13], 6.30.
In the case of `O=C(N[C@@H]1CNCCCC1OC(=O)c1cc(O)c(C(=O)c2c(O)cccc2C(=O)O)c(O)c1)c1ccc(O)cc1` (stereo not given in full), the pIC50 in test [9] is 8.00; in [10] it was 8.40; in test [11], 8.00; in test [8] it was 7.52; in [12] it was 8.52; in test [13], 8.00.
For the compound `O=C(N[C@@H]1c2ccccc2C[C@H]1OC(=O)c1cc(O)c(C(=O)c2c(O)cccc2C(=O)O)c(O)c1)c1ccc(O)cc1`, the pIC50 in test [2] is under 4.30; in test [3] it was 4.46; in [4], 4.49; in [5] it was under 4.30; in [6], 4.41; in test [7], 4.49. Further, in [8], the pIC50 was under 4.30.
On to `O=C(N[C@@H]1CCCC1OC(=O)c1cc(O)c(C(=O)c2c(O)cccc2C(=O)O)c(O)c1)c1ccc(O)cc1` (stereo not given in full), for which the negative logarithm of the IC50 (pIC50) in test [2] is 7.30; in test [3] it was 9.22; in test [4], 8.00; in test [5] it was 7.40; in test [6], 7.30; in test [7] it was 9.05. The same compound gave a negative logarithm of the IC50 (pIC50) in test [8] of 7.40.
Turning to `O=C(NC1CNCCCC1OC(=O)c1cc(O)c(C(=O)c2c(O)cccc2C(=O)O)c(O)c1)c1ccc(O)cc1` (racemic), the pIC50 in test [9] is 6.59; in [10], 7.30; in test [11], 6.85; in test [8] it was 6.43; in test [12], over 7.00; in [13] it was 7.10.
Turning to `O=C(N[C@@H]1CNCC1OC(=O)c1cc(O)c(C(=O)c2c(O)cccc2C(=O)O)c(O)c1)c1ccc(O)cc1` (stereo not given in full), the 50% inhibitory concentration (IC50) in test [1] came out at 70 nM. Also, the negative-log IC50 (pIC50) in test [2] is 8.00; in test [3] it was 8.40; in test [4] it was 7.92; in test [5], 8.00; in test [6] it was 7.48; in test [7] it was 8.30. In addition, the pIC50 in [8] was 7.66.
On to `O=C(N[C@@H]1Cc2ccccc2C1OC(=O)c1cc(O)c(C(=O)c2c(O)cccc2C(=O)O)c(O)c1)c1ccc(O)cc1` (mixture of isomers), for which the pIC50 in [2] is 6.32; in [3] it was over 7.60; in test [4], over 7.52; in [5], over 7.54; in [6], over 7.60; in test [7] it was over 7.60. For the same compound, the negative logarithm of the IC50 (pIC50) in test [8] is 7.15.
For the compound `O=C(N[C@@H]1c2ccccc2C[C@@H]1OC(=O)c1cc(O)c(C(=O)c2c(O)cccc2C(=O)O)c(O)c1)c1ccc(O)cc1`, the half-maximal inhibitory concentration (IC50) in test [1] worked out at 50000 nM. Further, the pIC50 in [2] was 5.72; in test [3], over 7.30; in test [4] it was 7.30; in [5], 7.22; in test [6], 7.30; in [7] it was 7.30. Besides, the pIC50 in [8] was 6.54.
